{"source": "the supplement of paper PMC10307832", "assay_in_all_cases": "relative viability (nuclei count vs DMSO), 5 days (fraction); higher = more cells survive", "key": {"[1]": {"compound": "C1CNCCC1C2=CC(=NN2)C3=CC=NC=C3 + CCNC(=O)c1noc(-c2cc(C(C)C)c(O)cc2O)c1-c1ccc(CN2CCOCC2)cc1 [Luminespib] (partner 0.01 µM)", "outline": "(§1)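 The day after seeding in 1536-well plates, lung cancer cell lines were treated by pin tool with a single drug, or with a fixed anchor-drug dose together with five library-drug doses (not always all listed) in √10 steps. After 5 days, a combined fix-and-stain solution (final 0.05% Triton X-100, 1% formaldehyde, 1 ug/ml Hoechst) was added. Nuclei counted on 4× images gave relative viability as treated counts over vehicle counts, reported as the median of duplicate plates.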"}, "[2]": {"compound": "C[C@@H](N)c1ccc(C(=O)Nc2ccnc3[nH]ccc23)cc1 + CS(=O)(=O)CCNCc1ccc(-c2ccc3ncnc(Nc4ccc(OCc5cccc(F)c5)c(Cl)c4)c3c2)o1 [Lapatinib] (partner 2 µM)", "outline": "as §1"}, "[3]": {"compound": "C[C@@H](N)c1ccc(C(=O)Nc2ccnc3[nH]ccc23)cc1 + Nc1nc2[nH]cc(CCc3ccc(C(=O)N[C@@H](CCC(=O)O)C(=O)O)cc3)c2c(=O)[nH]1 [Pemetrexed] (partner 0.2 µM)", "outline": "as §1"}, "Tanzisertib + Decitabine": {"compound": "O[C@H]1CC[C@H](Nc2ncc3nc(Nc4c(F)cc(F)cc4F)n([C@H]4CCOC4)c3n2)CC1 [Tanzisertib] + Nc1ncn([C@H]2C[C@H](O)[C@@H](CO)O2)c(=O)n1 [Decitabine] (partner 2 µM)", "outline": "as §1"}}}
{"cell line": "UMC-11", "values": [{"measurement": "relative viability", "setting": "[1]; first compound 0.08 µM", "result": 0.959}, {"measurement": "relative viability", "setting": "[1]; first compound 0.8 µM", "result": 1.19}, {"measurement": "relative viability", "setting": "[1]; first compound 2.53 µM", "result": 1.05}, {"measurement": "relative viability", "setting": "[1]; first compound 8 µM", "result": 1.14}, {"measurement": "relative viability", "setting": "[2]; first compound 0.04 µM", "result": 1.02}, {"measurement": "relative viability", "setting": "[2]; first compound 0.1265 µM", "result": 0.974}, {"measurement": "relative viability", "setting": "[2]; first compound 0.4 µM", "result": 1.05}, {"measurement": "relative viability", "setting": "[2]; first compound 1.265 µM", "result": 0.459}, {"measurement": "relative viability", "setting": "[2]; first compound 4 µM", "result": 0.812}, {"measurement": "relative viability", "setting": "[3]; first compound 0.04 µM", "result": 0.915}, {"measurement": "relative viability", "setting": "[3]; first compound 0.1265 µM", "result": 0.889}, {"measurement": "relative viability", "setting": "[3]; first compound 0.4 µM", "result": 0.955}, {"measurement": "relative viability", "setting": "[3]; first compound 1.265 µM", "result": 0.764}, {"measurement": "relative viability", "setting": "[3]; first compound 4 µM", "result": 0.498}, {"measurement": "relative viability", "setting": "Tanzisertib + Decitabine; first compound 0.08 µM", "result": 0.662}, {"measurement": "relative viability", "setting": "Tanzisertib + Decitabine; first compound 0.253 µM", "result": 0.688}, {"measurement": "relative viability", "setting": "Tanzisertib + Decitabine; first compound 0.8 µM", "result": 0.654}, {"measurement": "relative viability", "setting": "Tanzisertib + Decitabine; first compound 2.53 µM", "result": 0.852}, {"measurement": "relative viability", "setting": "Tanzisertib + Decitabine; first compound 8 µM", "result": 0.85}]}
